Consider three compounds from US20130165459A1, “PHARMACEUTICAL COMPOSITION AND DOSAGE FORMS OF ELINOGREL AND METHODS OF USE THEREOF” (NORVARTIS PHARMA AG, priority 2010, published 2013).

This series is described as follows: contact angle measurement (wettability). In kind it is physicochemical. To be noted: for Contact Angle: water, n = 2; for surface hydrophobicity: critical angle around 50°. Here is the method: The contact angle instrument was EasyDrop DSA15E (Krüss, Hamburg, Germany). The syringe was a NE44, with a needle diameter of 0.5 mm (Krüss, Hamburg, Germany). The standards (Krüss, Hamburg, Germany) were CP24 20007107, contact angle Gauge#4=30.00°±0.3, Gauge#5=60.00°±0.3, Gauge#6=120.00°±0.3.
The powder was pressed (approx 50 mg powder, 3 tons, 2 min) in tablets and analyzed by contact angle measuremnt. The angle between the solid and the liquid is measured after 0 and up to 60 seconds using water.
All determinations used the above method, and the limit for the standards measurements are well within the given limits.

Molecules are shown by their SMILES. “And” between values parts separate entries of the source, which are not always exact repeats. Equal entries are not always repeated.

As for `CNc1cc2[nH]c(=O)n(-c3ccc(NC(=O)[N-]S(=O)(=O)c4ccc(Cl)s4)cc3)c(=O)c2cc1F.[K+]` [B], the surface hydrophobicity result is “hydrophobic”. Also, the “Contact Angle” value (0 sec) is 72.4 ° and 79.7 °. Also, the “Contact Angle” value (30 sec) was 54.6 ° and 55.2 °. Besides, under “60 sec”, the “Contact Angle” value is 53.5 ° and 52.8 °.
`CNc1cc2[nH]c(=O)n(-c3ccc(NC(=O)NS(=O)(=O)c4ccc(Cl)s4)cc3)c(=O)c2cc1F` [Free acid, [4-(6-fluoro-7-methylamino-2,4-dioxo-1,4-dihydro-2H-quinazolin-3-yl)-phenyl]-5-chloro-thiophen-2-yl-sulfonylurea]: the “Contact Angle” value came out at 65.9 ° (0 sec), 60.8 ° (30 sec) and 60.1 ° (60 sec).
For `CNc1cc2[nH]c(=O)n(-c3ccc(NC(=O)[N-]S(=O)(=O)c4ccc(Cl)s4)cc3)c(=O)c2cc1F.[K+]` [A], the surface hydrophobicity result is reported as “hydrophobic”. Besides, under “0 sec”, the “Contact Angle” value was 78.8 °. Further, the “Contact Angle” value (30 sec) came to 53.3 °. Also, the “Contact Angle” value (60 sec) amounted to 51.0 °.
